# Experimental data published in PMC5318895, “Inhibition of N1-Src kinase by a specific SH3 peptide ligand reveals a role for N1-Src in neurite elongation by L1-CAM” (Scientific Reports, 2017).
# What was measured:
# hippocampal neurons = test: neurite growth of hippocampal neurons after N1-Src shRNA knockdown; assay type: cell-based, rat; settings: pSUPER-GFP shRNA, 48 h and 96 h post-transfection, versus empty plasmid or non-targeting shRNA, n = 90 neurons, Kruskal-Wallis
# Procedure: We next took advantage of the specificity of PDN1 to investigate the role of endogenous N1-Src in neurite outgrowth in cultured neurons. CFP-PDN1 or -PDN1(P5A) was transfected into 1 DIV CGNs and their morphology analysed after […]. During CGN development in vivo and immediately after plating in vitro, the cells grow two processes before polarising to yield a single axon and the second process retracts to become a dendrite and further dendrites are initiated. The axon then extends further before bifurcating. […] To further confirm that N1-Src regulates neurite growth we employed an shRNA expressing plasmid (pSUPER-GFP) to knockdown N1-Src in neurons. […] The successful N1-Src shRNA plasmid was transfected into hippocampal neurons, and the length of the longest neurite in GFP-positive neurons was assessed at 48 h and 96 h post-transfection. […] Thus, perturbing N1-Src activity with PDN1 or knockdown of the protein produces the same neurite phenotype in primary neuronal cultures.
# Figure 5 Knockdown of N1-Src phenocopies the action of PDN1 in cultured neurons. […] (c,d) Cultured hippocampal neurons transfected with pSUPER-GFP (control) or pSUPER-GFP encoding N1-Src specific shRNA were analysed for length of longest neurite at 48 or 96 h. […] Data were normalised to the 48 h control and plotted as mean ± SEM, n = 90 neurons, with 30 cells analysed per condition in 3 independent experiments. […]
# N1-Src [1] = test: isoform specificity of N1-Src shRNA co-expressed with C-, N1- or N2-Src in COS7 cells; assay type: cell-based, rat; settings: COS7, co-transfected 72 h with C-, N1- or N2-Src-FLAG; anti-FLAG immunoblot
# C-Src SH3 domain = settings: cited from earlier work
# Description: The PDN1 consensus motif, RxPxxTxK, represents a novel SH3 ligand and lacks a canonical PxxP, thus confirming the six amino acid N1-Src splice insert has a dramatic effect on the structure of its SH3 domain. The ligand binding site in the majority of SH3 domains, including C-Src, comprises three pockets, two of which interact with the core xP motifs and one that adds specificity through binding flanking residues. […] Indeed, one of the few ...
# N1-Src [2] = target: T1, N1-Src (Rattus norvegicus, UniProt Q9WUD9); test: inhibition of N1-Src phosphorylation of GST-Y by free soluble peptide; assay type: biochemical; design: His; made in house; host or cells: E. coli; settings: free soluble peptide titrated with 5 nM N1-Src and GST-Y; phosphotyrosine immunoblot densitometry; n = 3
# Procedure: Previous studies have shown that soluble SH3 ligands can enhance Src family kinase activity in vitro[20][21]. […] This experiment raised the possibility that PDN1 could act as an N1-Src inhibitor in cells. […] We observed that COS7 cells transfected with N1-Src-FLAG underwent a striking change in morphology within 48 h (Fig. 3a). Similar to that previously observed in Xenopus epithelial cells, overexpression of the kinase induced the growth of neurite-like processes (Fig. 3b) and an approximate 35% reduction in area of the cell soma (Fig. 3c). […] Using cell morphology as a readout, we assessed the effect of CFP-PDN1 and PDN1(P5A) on N1-Src activity in cells. […] We also assessed the effect of PDN1 on N2-Src expressing cells because the first five amino acids of its SH3 insert are identical to that in N1-Src[3].
# Figure 2 PDN1 inhibits N1-Src activity in vitro. GST-Y was incubated with 5 nM N1-Src and the indicated concentrations of either PDN1 or PDN1(P5A) and the extent of phosphorylation determined by densitometry of phosphotyrosine immunoreactivity. […]
# Phosphorylation reactions were performed as previously described, prepared in kinase reaction buffer (100 mM Tris, 10 mM MgCl2, pH 7.5) and initiated by the addition of pre-warmed ATP (0.5 mM final concentration) and incubated at 30 °C for the indicated times. […] Due to the non-quantitative measurement of V, Vmax was not determined. […]
# N1-Src [3] = target: T1, N1-Src; test: in vitro kinase assay, N1-Src phosphorylation of GST-Y-PDN substrates; assay type: biochemical; design: His; made in house; host or cells: E. coli; settings: PDN1 fused to an ideal Src substrate
# Procedure: Figure 1 Identification of a novel ligand consensus sequence for the N1-Src SH3 domain. (a) Schematic of the kinase assay used to validate the effect of potential SH3 domain ligands on the phosphorylation of an ideal tyrosine motif (Y in bold) located upstream of a 10 aa linker and 12 aa phage peptide. (b) GST-Y-PDN1–6 substrates at 0.3, 0.9, 2.8 or 8.3 μM were phosphorylated in vitro with 5 nM C- or N1-Src at 30 °C and the phosphorylation detected by anti-phosphotyrosine immunoblot. Immunoblots are representative of three independent experiments. (c) Alignment of the phage display peptides ranked by N1-Src selectivity derived from results in (b). Shaded residues represent the common consensus sequence. […] (e) GST-Y-PDN1 substrates with the indicated point mutations (see insert) at 8.3 μM were phosphorylated by 5 nM N1-Src and the extent of phosphorylation was measured by densitometry of phosphotyrosine immunoreactivity. […]
# The PDN peptides were tested for specificity for the N1-Src SH3 domain using a kinase assay in which a GST fusion of an ideal Src substrate peptide (Y) and a putative SH3 ligand peptide can distinguish SH3 domain specificity (Fig. 1a). Based on our previous study, we chose a range of substrate concentrations at which an enhancement in phosphorylation by docking to canonical peptide ligands for the C-Src SH3 domain can be detected (8.3 μM and below)[12]. […]
substance,measurement,setting,value
"5′-GGAAGGTGGATGTCAGAGA-3′ (expressed or natural sequence; target site or template, no part of the molecule) [N1-Src shRNA]",inhibition of neurite growth (length of longest neurite),hippocampal neurons,significant time-dependent inhibition of neurite growth
same,isoform specificity of knockdown,N1-Src [1],confirmed isoform specificity
RSLRPLPPLPPRPPF [phage display ligand selected by the PI3-kinase SH3 domain],binding to the C-Src SH3 domain,C-Src SH3 domain,did not bind the C-Src SH3 domain
"WHRMPAYTAKYP [PDN1, 12mer peptide derived from a phage display screen of the N1-Src SH3 domain]",inhibition of GST-Y phosphorylation,N1-Src [2],inhibited GST-Y phosphorylation in a dose dependent manner
same,enhancement of substrate phosphorylation by N1-Src,N1-Src [3],enhanced the specific in vitro phosphorylation of an ideal substrate by N1-Src
